Assay results reported in patent US10214553B2, “Solid state forms of sofosbuvir” (ratiopharm GmbH, priority 2014, dated 2019).
Values after ≈ are worked out from the molar mass of the structure shown.

What was measured:
Format in all cases: physicochemical
[1] = Compressibility, maximum density at constant pressure of 0.2 MPa (TA-XT2 Texture analyser); conditions: 0.2 MPa per step, 10 steps
Protocol: As used herein, and unless indicated otherwise, the term “compressibility” is expressed as maximum density at constant pressure of 0.2 MPa.
Compression profiles were obtained using a die and a flat-faced punch fitted on a TA-XT2 Texture analyser (Stable Micro Systems Ltd., Godalming, UK).
200 mg of micronized crystalline form E of Sofosbuvir obtained according to example 8 is compressed in a steel mould (with the rate of displacement 0.03 mm/s). Cyclic procedure (similar to tapping) was performed: compressing, then retracting, relaxation for 15 s and then repeated compressive steps (altogether 10 steps). Each step exerts 0.2 MPa pressure on to the sample. Sample density is calculated by dividing the weight by the sample volume for each cycle. Maximum density is reached within 10 steps. The maximal compressive displacement was 0.5 mm. The resulting density was: 0.48 g/ml

[2] = DVS water vapor sorption (hygroscopicity); conditions: for critical relative humidity in the sorption curve at which the rate of water uptake changes (inflection point): DVS sorption curve; for Change in Mass (%): 25° C.
Protocol: The improved hygroscopic properties discussed herein above may be expressed by the dynamic water uptake monitored by the DVS instrument. The profile of the dynamic curve obtained may provide insight on the tendency of the substance to deliquescence. […] This behavior indicates a long-term possibility of the stored powder to stick and form lumps.
DVS measurements were performed SMS DVS instrument
Humidity range: 0%-90%-0% cycle. […]
minimum step duration: 60 min maximum step duration: 720 min

[3] = Solubility at 37° C. by UHPLC/UV; conditions: for solubility at 15 min / solubility at 1 h: 37 °C, thermodynamic from solid
Protocol: (§1) Sofosbuvir form 6 prepared according to example 18 above and Sofosbuvir form 7 prepared according to example 16 above was used.
The solubility was determined as follows:
100 mg test substance was weighed into a glass vial, followed by addition of 4 mL solvent (water, 0.01 M HCl, 20 mM sodium acetate/acetic acid [pH 4.5], 50 mM KH2PO4 [pH 6.8]). A stirring bar was added, the vial was fixed in a block heater at 37° C. and the suspension was stirred with 250 rpm. After 15 min and 1 h, samples were withdrawn and filtered through a 0.2 μm PTFE filter. 100 μL of the clear filtrate were diluted with 900 μL acetonitrile/water mixture (1:1) and 1 μL thereof was analyzed by UHPLC/UV:
Instrument: Agilent 1290 Infinity
Column: Phenomenex Kinetex XB—C18, 1.7 μm, 50×3 mm
Solvent A: water+0.2% Formic acid+0.1% HFBA […] heptafluorobutyric acid)

[4] = Particle size distribution by laser diffractometry (Mastersizer 2000, wet measurement); conditions: silicone oil
Protocol: If a wet measurement is used the particles to be measured are dispersed in a dispersant, preferably a dispersant having a refractive index (RI) of 1.403, and the measurement is carried out at 2000 rpm and ultrasound for 120 s prior to measurement. Preferably, unless otherwise indicated the particle size distribution is determined using a wet measurement using a Mastersizer 2000 from Malvern Instruments and Malvern Hydro 2000S wet sample dispersion unit and silicone oil as dispersant. Unless otherwise indicated, the following settings are preferably used:
as §1
The particle size distribution was determined using a wet measurement using a Mastersizer 2000 from Malvern Instruments and Malvern Hydro 2000S wet sample dispersion unit and silicone oil as dispersant.

[5] = Propensity to become electrostatically charged
[6] = Dissolution, USP apparatus II, paddle method; conditions: pH 6.8, after 5 minutes
Protocol: Sofosbuvir form 6 prepared according to example 18 above and Sofosbuvir form 7 prepared according to example 16 above was used. The dissolution of Sofosbuvir Form 7 and Form 6 was measured (in triplicate) in 50 mM phosphate buffer at 37° C. (pH 6.8, 900 mL), using USP apparatus II, paddle method. Every 5 minutes, a probe was taken and measured by UV/VIS at 260 nm and path length 0.1 cm; UV/VIS was measured on an Agilent model 8453 with Chem Station Dissolution Software. 400 mg of Sofosbuvir Form 7 or Form 6 was used for the test, and the percentages are given in relation to 400 mg of the API. The results are represented graphically in FIG. 13.

[7] = Storage stability of the solid form

CC(C)OC(=O)[C@H](C)NP(=O)(OC[C@H]1O[C@@H](n2ccc(=O)[nH]c2=O)[C@](C)(F)[C@@H]1O)Oc1ccccc1 (stereo partly drawn) [(2S)-isopropyl 2-(((((2R,3R,4R,5R)-5-(2,4-dioxo-3,4-dihydropyrimidin-1(2H)-yl)-4-fluoro-3-hydroxy-4-methyltetrahydrofuran-2-yl)methoxy)(phenoxy)phosphoryl)amino)propanoate]
resulting density (compressibility) [1]: 0.48 g/mL

CC(C)OC(=O)[C@H](C)NP(=O)(OC[C@H]1O[C@@H](n2ccc(=O)[nH]c2=O)[C@](C)(F)[C@@H]1O)Oc1ccccc1 (stereo partly drawn) [Form 1, (2S)-isopropyl 2-(((((2R,3R,4R,5R)-5-(2,4-dioxo-3,4-dihydropyrimidin-1(2H)-yl)-4-fluoro-3-hydroxy-4-methyltetrahydrofuran-2-yl)methoxy)(phenoxy)phosphoryl)amino)propanoate]
critical relative humidity in the sorption curve at which the rate of water uptake changes (inflection point) [2]: about 80 % RH
water uptake ([2]; DVS, above 80% RH): about 5%
Change in Mass (%) ([2]; DVS, relative humidity 70%): 0.13%
Change in Mass (%) ([2]; DVS, relative humidity 90%): 5.57%

CC(C)OC(=O)[C@H](C)NP(=O)(OC[C@H]1O[C@@H](n2ccc(=O)[nH]c2=O)[C@](C)(F)[C@@H]1O)Oc1ccccc1 (stereo partly drawn) [Form 6, (2S)-isopropyl 2-(((((2R,3R,4R,5R)-5-(2,4-dioxo-3,4-dihydropyrimidin-1(2H)-yl)-4-fluoro-3-hydroxy-4-methyltetrahydrofuran-2-yl)methoxy)(phenoxy)phosphoryl)amino)propanoate]
Solubility ([3]; 0.01 M HCl, 15 min): 2.5 mg/mL (≈ 4.72 mM)
Solubility ([3]; 0.01 M HCl, 1 h): 2.4 mg/mL (≈ 4.53 mM)
Solubility ([3]; 20 mM NaOAc/HOAc (pH 4.5), 15 min): 2.4 mg/mL (≈ 4.53 mM)
Solubility ([3]; 20 mM NaOAc/HOAc (pH 4.5), 1 h): 2.5 mg/mL (≈ 4.72 mM)
Solubility ([3]; 50 mM KH2PO4 (pH 6.8), 15 min): 2.3 mg/mL (≈ 4.34 mM)
Solubility ([3]; 50 mM KH2PO4 (pH 6.8), 1 h): 2.3 mg/mL (≈ 4.34 mM)
Solubility ([3]; water, 15 min): 2.4 mg/mL (≈ 4.53 mM)
Solubility ([3]; water, 1 h): 2.3 mg/mL (≈ 4.34 mM)
Particle size D10 [4]: 2.0 μm
Particle size D50 [4]: 8.2 μm
Particle size D90 [4]: 22.9 μm
propensity to become electrostatically charged [5]: high propensity to become electrostatically charged
critical relative humidity in the sorption curve at which the rate of water uptake changes (inflection point) [2]: about 70 % RH
water uptake ([2]; DVS, above 70% RH): about 1%
Change in Mass (%) ([2]; DVS, relative humidity 70%): 0.14%
Change in Mass (%) ([2]; DVS, relative humidity 90%): 1.08%

CC(C)OC(=O)[C@H](C)NP(=O)(OC[C@H]1O[C@@H](n2ccc(=O)[nH]c2=O)[C@](C)(F)[C@@H]1O)Oc1ccccc1 (stereo partly drawn) [Form 7, (2S)-isopropyl 2-(((((2R,3R,4R,5R)-5-(2,4-dioxo-3,4-dihydropyrimidin-1(2H)-yl)-4-fluoro-3-hydroxy-4-methyltetrahydrofuran-2-yl)methoxy)(phenoxy)phosphoryl)amino)propanoate]
solubility (percent dissolved) [6]: ≥ 65%
solubility at 15 min ([3]; 0.01 M HCl, pH 2, simulated gastric fluid, 15 min): 3200 µg/mL (≈ 6.04 mM)
solubility at 1 h ([3]; 0.01 M HCl, pH 2, simulated gastric fluid, 1 h): 3200 µg/mL (≈ 6.04 mM)
solubility at 15 min ([3]; 20 mM sodium acetate/acetic acid buffer, pH 4.5, aqueous buffer, 20 mM NaOAc/HOAc (pH 4.5), 15 min): 3100 µg/mL (≈ 5.86 mM)
solubility at 1 h ([3]; 20 mM sodium acetate/acetic acid buffer, pH 4.5, aqueous buffer, 20 mM NaOAc/HOAc (pH 4.5), 1 h): 3100 µg/mL (≈ 5.86 mM)
solubility at 15 min ([3]; 50 mM KH2PO4 buffer, pH 6.8, aqueous buffer, 50 mM KH2PO4 (pH 6.8), 15 min): 3200 µg/mL (≈ 6.04 mM)
solubility at 1 h ([3]; 50 mM KH2PO4 buffer, pH 6.8, aqueous buffer, 50 mM KH2PO4 (pH 6.8), 1 h): 3000 µg/mL (≈ 5.67 mM)
solubility compared with the solubility of Form 6 ([3]; physiologically relevant solvents, after 15 min and after 1 hour): approximately one third higher
solubility at 15 min ([3]; water, 15 min): 3100 µg/mL (≈ 5.86 mM)
solubility at 1 h ([3]; water, 1 h): 3100 µg/mL (≈ 5.86 mM)

CC(C)OC(=O)[C@H](C)NP(=O)(OC[C@H]1O[C@@H](n2ccc(=O)[nH]c2=O)[C@](C)(F)[C@@H]1O)Oc1ccccc1 (stereo partly drawn) [Form E, (2S)-isopropyl 2-(((((2R,3R,4R,5R)-5-(2,4-dioxo-3,4-dihydropyrimidin-1(2H)-yl)-4-fluoro-3-hydroxy-4-methyltetrahydrofuran-2-yl)methoxy)(phenoxy)phosphoryl)amino)propanoate]
hysteresis between the desorption and the absorption isotherm ([2]; DVS): doesn't exhibit any hysteresis
critical relative humidity in the sorption curve at which the rate of water uptake changes (inflection point) [2]: does not show this inflection point
Change in Mass (%) ([2]; DVS, relative humidity 70%): 0.07%
Change in Mass (%) ([2]; DVS, relative humidity 90%): 0.12%
stable for ([7]; at 25 degrees): at least 3 months
stable for ([7]; at 40 degrees): at least 3 months
